The values that follow come from publication PMC3898987 (Bioorganic & Medicinal Chemistry, 2013).

Test [1] concerns the target T1, 5-HT3AB receptor, 5-HT3B subunit Y143A (Homo sapiens, UniProt O95264+P46098, Y136A).
T1 sequence (P46098 24-478): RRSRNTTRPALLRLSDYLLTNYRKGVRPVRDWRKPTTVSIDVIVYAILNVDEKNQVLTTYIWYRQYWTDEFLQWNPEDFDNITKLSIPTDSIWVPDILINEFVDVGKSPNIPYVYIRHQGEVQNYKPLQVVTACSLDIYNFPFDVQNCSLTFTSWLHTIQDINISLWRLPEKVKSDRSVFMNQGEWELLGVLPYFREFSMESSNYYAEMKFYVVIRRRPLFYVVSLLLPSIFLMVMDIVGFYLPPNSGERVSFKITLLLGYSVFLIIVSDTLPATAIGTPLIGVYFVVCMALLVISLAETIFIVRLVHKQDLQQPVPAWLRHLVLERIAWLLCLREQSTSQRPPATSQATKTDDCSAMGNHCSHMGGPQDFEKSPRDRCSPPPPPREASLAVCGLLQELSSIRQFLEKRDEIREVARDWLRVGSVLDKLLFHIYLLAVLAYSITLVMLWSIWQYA
T1 sequence (O95264 22-441 Y136A): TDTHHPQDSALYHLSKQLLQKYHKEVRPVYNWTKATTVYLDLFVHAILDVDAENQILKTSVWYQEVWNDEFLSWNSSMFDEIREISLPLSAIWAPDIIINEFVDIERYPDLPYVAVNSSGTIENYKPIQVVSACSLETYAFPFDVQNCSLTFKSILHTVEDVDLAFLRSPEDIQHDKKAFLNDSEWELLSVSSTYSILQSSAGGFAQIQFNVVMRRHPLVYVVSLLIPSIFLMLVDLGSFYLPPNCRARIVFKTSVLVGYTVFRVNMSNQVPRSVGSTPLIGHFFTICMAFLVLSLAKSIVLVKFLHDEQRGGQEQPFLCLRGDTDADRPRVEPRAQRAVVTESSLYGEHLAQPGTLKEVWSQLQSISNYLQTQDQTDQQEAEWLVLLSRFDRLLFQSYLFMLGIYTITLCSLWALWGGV
The experiment in a line: FlexStation membrane potential dye functional assay, HEK293 cells. Conditions: 5-HT concentration-response, 5-HT3AB with 5-HT3B Y143A.
Description: For FlexStation assays, transfected cells were plated on 96-well plates and incubated 1–2 days before assay.
Fluorometric studies were undertaken using a FlexStation® (Molecular Devices, Sunnyvale, CA, USA) as previously described.[11]
Fluorescence was measured every 2 s for 200 s. […] Concentration–response and inhibition curves were obtained for each mutant, and the fluorescence values were normalized to the maximal response.

For another test, the target named is T2, WT 5-HT3AB receptor (Homo sapiens, UniProt O95264+P46098).
T2 sequence (P46098 24-478): T1 sequence (P46098 24-478)
T2 sequence (O95264 22-441): T1 sequence (O95264 22-441 Y136A) with A115Y
The experiment in a line: radioligand saturation binding, transfected HEK293 membranes. Conditions: [3H]-palonosetron saturation, 4 °C, 24 h.

The next test has as its target T3, 5-HT3A receptor Y73A (Homo sapiens, UniProt P46098, Y68A).
T3 sequence (P46098 24-478 Y68A): T1 sequence (P46098 24-478) with Y45A
The test is described as above. Conditions: [3H]-palonosetron saturation, 5-HT3A Y73A, 4 °C, 24 h.

Test [2] concerns the target T4, 5-HT3AB receptor, 5-HT3B subunit F130A (Homo sapiens, UniProt O95264+P46098, F123A).
T4 sequence (P46098 24-478): T1 sequence (P46098 24-478)
T4 sequence (O95264 22-441 F123A): T1 sequence (O95264 22-441 Y136A) with F102A, A115Y
The test is described as above.
Description: (§1) Human embryonic kidney (HEK) 293 cells were cultured on 90 mm tissue culture plates at 37 °C and 7% CO2 in a humidified atmosphere. They were grown in DMEM:F12 (Dulbecco’s Modified Eagle’s Medium/Nutrient Mix F12 (1:1)) with GlutaMAX I™ containing 10% fetal calf serum and passaged when confluent. For radioligand binding studies, cells in 90 mm dishes were transfected at 60–70% confluency using polyethyleneimine and incubated for 3–4 days before use. For FlexStation assays, transfected cells were plated on 96-well plates and incubated 1–2 days before assay. […]
(§2) Eight-point binding assays were performed to produce saturation binding curves. […] Radioactive counts were measured using a Beckman LS6000SC liquid scintillation counter (Fullerton, California, USA).
(§3) Data were analyzed by iterative curve fitting using GraphPad Prism v5 (San Diego, CA) according to the following equation: B=Bmax[L]^n/kdn+[L]^n where B is the amount of bound radioligand, Bmax is the maximum specific binding at equilibrium, [L] is the concentration of radioligand, Kd is the equilibrium dissociation constant of the radioligand, and n is the Hill coefficient.

What is called Kd is the constant that tells how readily two partners part at equilibrium. Low readings indicate higher affinity, high ones lower affinity.

Positions count from the first letter of the chain named.

Description for 5-HT3A receptor Y73A: as §1, §2, §3
Description for WT 5-HT3AB receptor: as §1, §2, §3

Regarding `NCCc1c[nH]c2ccc(O)cc12` [5-HT, serotonin], the “Hill Coefficient” value in test [1] was 1.3 ± 0.2.
Consider `O=C1c2cccc3c2[C@H](CCC3)CN1[C@@H]1CN2CCC1CC2` [Palonosetron], for which the Kd on WT 5-HT3AB receptor stood at 0.18 ± 0.02 nM; on 5-HT3A receptor Y73A, 0.87 ± 0.04 nM; in test [2] ([3H]-palonosetron saturation, 5-HT3AB with 5-HT3B F130A, 4 °C, 24 h), 0.48 ± 0.03 nM. Further, the “increase in Kd compared to wild type” value in test [2] ([3H]palonosetron, F130A (5-HT3B) containing heteromers vs WT 5-HT3AB) is reported as “twofold”.
